Experimental data taken from article PMC6934184, “Selective DNA-PKcs inhibition extends the therapeutic index of localized radiotherapy and chemotherapy” (The Journal of Clinical Investigation, 2019).

Biological target: T1, CDC7/DBF4 (Homo sapiens, UniProt O00311)
T1 construct: purchased Thermo Fisher Scientific (Life Technologies) SelectScreen
Test: SelectScreen LanthaScreen
Format: binding
Conditions: read-out: % displacement
In short: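 NU5455 was profiled across the SelectScreen Broad panel of kinase activity and binding assays. Z'LYTE reactions such as CSF1R ran at apparent Km ATP, while the Adapta CAMK1 assay used ATP listed as 10. Values are given as percent.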

T1 sequence (O00311 whole entry): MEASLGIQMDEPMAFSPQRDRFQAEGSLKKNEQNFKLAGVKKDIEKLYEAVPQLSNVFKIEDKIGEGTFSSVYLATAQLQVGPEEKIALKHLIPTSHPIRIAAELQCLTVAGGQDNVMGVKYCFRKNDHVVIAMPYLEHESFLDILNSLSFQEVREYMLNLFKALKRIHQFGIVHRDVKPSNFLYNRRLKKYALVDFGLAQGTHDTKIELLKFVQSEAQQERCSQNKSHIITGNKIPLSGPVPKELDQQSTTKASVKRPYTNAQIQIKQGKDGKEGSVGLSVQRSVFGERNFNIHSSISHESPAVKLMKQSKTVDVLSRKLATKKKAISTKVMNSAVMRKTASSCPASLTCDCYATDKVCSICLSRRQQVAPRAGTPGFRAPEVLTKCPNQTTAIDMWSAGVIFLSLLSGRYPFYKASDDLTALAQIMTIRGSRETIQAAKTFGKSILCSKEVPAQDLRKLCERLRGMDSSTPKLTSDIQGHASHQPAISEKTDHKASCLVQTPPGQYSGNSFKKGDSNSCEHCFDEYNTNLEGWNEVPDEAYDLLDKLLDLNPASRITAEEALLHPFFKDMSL
T1 sequence (Q9UBU7 whole entry partner): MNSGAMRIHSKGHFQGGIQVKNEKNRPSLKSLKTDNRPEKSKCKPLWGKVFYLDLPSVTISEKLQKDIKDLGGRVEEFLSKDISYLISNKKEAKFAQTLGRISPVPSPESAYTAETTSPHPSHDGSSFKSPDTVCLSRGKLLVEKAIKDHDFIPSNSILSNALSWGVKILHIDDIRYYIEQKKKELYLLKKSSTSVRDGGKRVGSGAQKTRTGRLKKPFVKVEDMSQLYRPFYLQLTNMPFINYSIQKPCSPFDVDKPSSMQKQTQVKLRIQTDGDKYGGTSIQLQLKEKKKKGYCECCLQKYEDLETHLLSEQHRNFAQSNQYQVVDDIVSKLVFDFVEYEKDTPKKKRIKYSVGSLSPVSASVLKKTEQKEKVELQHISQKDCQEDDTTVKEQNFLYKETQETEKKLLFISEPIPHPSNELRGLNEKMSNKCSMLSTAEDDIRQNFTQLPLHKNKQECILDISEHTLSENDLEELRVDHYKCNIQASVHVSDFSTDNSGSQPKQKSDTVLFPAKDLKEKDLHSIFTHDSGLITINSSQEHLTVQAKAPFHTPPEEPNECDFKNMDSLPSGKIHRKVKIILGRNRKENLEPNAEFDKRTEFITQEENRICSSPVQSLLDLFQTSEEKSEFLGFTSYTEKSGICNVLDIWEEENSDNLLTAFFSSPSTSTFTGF

CN(C(=O)CN1CCOCC1)c1ccc2sc3c(-c4cccc5c(=O)cc(N6CC7CCC(C6)O7)oc45)cccc3c2c1 [NU5455]
inhibition at 1 µM: 6%
